The text below walks through data of patent publication US20250296959A1, “B7-H3 TARGETING PEPTIDES AND CONSTRUCTS THEREOF” (Mariana Oncology Inc., priority 2024, published 2025).

For the assay, the target named is T1, human 4lg B7-H3 (Homo sapiens, UniProt Q5ZPR3).
T1 sequence (Q5ZPR3 29-534): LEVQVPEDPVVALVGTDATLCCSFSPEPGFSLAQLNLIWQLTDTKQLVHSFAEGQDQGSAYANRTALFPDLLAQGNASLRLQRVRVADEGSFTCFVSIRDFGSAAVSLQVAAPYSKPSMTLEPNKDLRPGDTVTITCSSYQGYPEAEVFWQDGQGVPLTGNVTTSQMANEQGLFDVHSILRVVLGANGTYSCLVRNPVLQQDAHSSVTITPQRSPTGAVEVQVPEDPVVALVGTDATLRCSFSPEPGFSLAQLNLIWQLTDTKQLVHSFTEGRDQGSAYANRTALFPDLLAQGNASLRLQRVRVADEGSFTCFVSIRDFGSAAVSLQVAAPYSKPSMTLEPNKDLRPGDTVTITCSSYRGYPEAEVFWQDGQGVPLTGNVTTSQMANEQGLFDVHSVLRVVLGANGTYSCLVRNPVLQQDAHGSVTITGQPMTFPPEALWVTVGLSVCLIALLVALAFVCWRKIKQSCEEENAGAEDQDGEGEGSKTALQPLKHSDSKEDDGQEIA
The assay can be described thus: Affinity determination by surface plasmon resonance (SPR) to 4Ig B7-H3. The conditions noted are these: 4Ig B7-H3. (In general: Surface plasmon resonance follows binding to a sensor surface in real time, without labels.)

Setting [1] is: SPR KD—25° C., 25° C. flow cell temperature.

The structures appear in SMILES notation. Starred links: 1 amine or outer side, 2 acyl side, 3 side chain; linkers in the order of their positions; H or OH if unused. Positions of bridges follow the written chain, without caps; N, C: chain ends. Non-standard residues stand in square brackets, D forms with d. Residues, ends and D or L forms follow the SMILES beside them. *: point of attachment. Ala(piperidin-4-yl) = O=C([C@H](CC1CCN([*:3])CC1)N[*:1])[*:2]; DOTA = O=C(O)CN1CCN(CC(=O)O)CCN(CC(=O)*)CCN(CC(=O)O)CC1; Trp(5-F) = N[C@@H](Cc1c[nH]c2ccc(F)cc12)C(=O)O; Trp(2-Me) = Cc1[nH]c2ccccc2c1C[C@H](N)C(=O)O; Ala(4-THP) = N[C@@H](CC1CCOCC1)C(=O)O; Val(3-OH) = CC(C)(O)[C@H](N)C(=O)O; Chg = N[C@H](C(=O)O)C1CCCCC1; Tle = CC(C)(C)[C@H](N)C(=O)O; hLeu = CC(C)CC[C@H](N)C(=O)O; NMeC = CN[C@@H](CS)C(=O)O; NMeS = CN[C@@H](CO)C(=O)O; Nle = CCCC[C@H](N)C(=O)O

As to `CC(=O)N[C@@H](CCC(C)C)C(=O)N[C@@H](Cc1ccc(O)cc1)C(=O)N(C)[C@H]1CSSC[C@@H](C(=O)N[C@@H](Cc2c[nH]c3ccc(F)cc23)C(=O)N[C@@H](Cc2ccccc2)C(=O)N[C@H](C(=O)N[C@H](CCCCNC(=O)CN2CCN(CC(=O)O)CCN(CC(=O)O)CCN(CC(=O)O)CC2)C(N)=O)[C@@H](C)O)NC(=O)[C@H](Cc2ccc(O)cc2)NC(=O)[C@H](C(C)C)NC(=O)[C@H](CC(=O)O)NC(=O)[C@H](Cc2ccc(O)cc2)NC(=O)[C@H](CCCCN)NC(=O)CNC(=O)[C@H](C(C)C)NC1=O` [compound 237, Ac-hLeu-Y-NMeCys-V-G-K-Y-D-V-Y-C-5FW-F-Thr-dLys(DOTA)-CONH2] (Ac-[hLeu]Y[NMeC]VGKYDVYC[Trp(5-F)]FT[dK](DOTA)-NH2; disulfide 3-11), under setting [1], the Kd (in general, the equilibrium constant for the complex coming apart) fell in the range of 1 to 10 nM. Same read-out and setting: as for `CCCC[C@H](NC(C)=O)C(=O)N[C@@H](Cc1ccc(O)cc1)C(=O)N[C@H]1CSSC[C@@H](C(=O)N[C@@H](Cc2c[nH]c3ccccc23)C(=O)N[C@@H](Cc2ccccc2)C(=O)N[C@H](C(=O)N[C@H](CCCCNC(=O)CN2CCN(CC(=O)O)CCN(CC(=O)O)CCN(CC(=O)O)CC2)C(N)=O)[C@@H](C)O)NC(=O)[C@H](Cc2ccc(O)cc2)NC(=O)[C@H](C(C)C)NC(=O)[C@H](CC(=O)O)NC(=O)[C@H](Cc2ccc(O)cc2)NC(=O)[C@H](CCCNC(=N)N)NC(=O)CNC(=O)[C@H](C(C)C)NC1=O` [compound 85, Ac-Nle-Y-C-V-G-Arg-Y-D-V-Y-C-W-F-Thr-dLys(DOTA)-CONH2] (Ac-[Nle]YCVGRYDVYCWFT[dK](DOTA)-NH2; disulfide 3-11), the figure is 1 to 10 nM; as for `CC(=O)N[C@@H](CCC(C)C)C(=O)N[C@@H](Cc1ccc(O)cc1)C(=O)N[C@H]1CSSC[C@@H](C(=O)N[C@@H](Cc2c[nH]c3ccc(F)cc23)C(=O)N[C@@H](Cc2ccccc2)C(=O)N[C@@H](C(=O)N[C@H](CCCCNC(=O)CN2CCN(CC(=O)O)CCN(CC(=O)O)CCN(CC(=O)O)CC2)C(N)=O)[C@H](C)O)NC(=O)[C@H](Cc2ccc(O)cc2)NC(=O)[C@H](C(C)C)NC(=O)[C@H](CC(=O)O)NC(=O)[C@H](Cc2ccc(O)cc2)NC(=O)[C@H](CCCCN)NC(=O)CNC(=O)[C@H](C(C)C)NC1=O` [compound 163, Ac-hLeu-Y-C-V-G-K-Y-D-V-Y-C-5FW-F-dThr-dLys(DOTA)-CONH2] (Ac-[hLeu]YCVGKYDVYC[Trp(5-F)]F[dT][dK](DOTA)-NH2; disulfide 3-11), 10 to 100 nM. Regarding `CC(=O)N[C@@H](CCC(C)C)C(=O)N[C@@H](Cc1ccc(O)cc1)C(=O)N[C@H]1CSSC[C@@H](C(=O)N[C@@H](Cc2c(C)[nH]c3ccccc23)C(=O)N[C@@H](Cc2ccccc2)C(=O)N[C@H](C(=O)N[C@H](CCCCNC(=O)CN2CCN(CC(=O)O)CCN(CC(=O)O)CCN(CC(=O)O)CC2)C(=O)O)C(C)(C)O)NC(=O)[C@H](Cc2ccc(O)cc2)NC(=O)[C@H](C(C)C)NC(=O)[C@H](CC(=O)O)NC(=O)[C@H](CC2CCOCC2)NC(=O)[C@H](CC2CCNCC2)NC(=O)CNC(=O)[C@H](C(C)(C)C)NC1=O` [compound 492, Ac-hLeu-Y-C-Tbg-G-PipAla-ThpA-D-V-Y-C-2MeW-F-hydroxyVal-dLys(DOTA)-COOH] (Ac-[hLeu]YC[Tle]G[Ala(piperidin-4-yl)][Ala(4-THP)]DVYC[Trp(2-Me)]F[Val(3-OH)][dK](DOTA)-OH; disulfide 3-11), the Kd (SPR KD—37° C., 37° C. flow cell temperature) was < 1 nM. Turning to `CC(=O)N[C@@H](CCC(C)C)C(=O)N[C@H](C(=O)N[C@H]1CSSC[C@@H](C(=O)N[C@@H](Cc2c[nH]c3ccc(F)cc23)C(=O)N[C@@H](Cc2ccccc2)C(=O)N(C)[C@@H](CO)C(=O)N[C@H](CCCCNC(=O)CN2CCN(CC(=O)O)CCN(CC(=O)O)CCN(CC(=O)O)CC2)C(N)=O)NC(=O)[C@H](Cc2ccc(O)cc2)NC(=O)[C@H](C(C)C)NC(=O)[C@H](CC(=O)O)NC(=O)[C@H](Cc2ccc(O)cc2)NC(=O)[C@H](CC2CCNCC2)NC(=O)CNC(=O)[C@H](C(C)C)NC1=O)C1CCCCC1` [compound 212, Ac-hLeu-Chg-C-V-G-PipAla-Y-D-V-Y-C-5FW-F-NMeSer-dLys(DOTA)-CONH2] (Ac-[hLeu][Chg]CVG[Ala(piperidin-4-yl)]YDVYC[Trp(5-F)]F[NMeS][dK](DOTA)-NH2; disulfide 3-11), the Kd under setting [1] fell in the range of 100 to 300 nM.
